The values that follow come from PMC11091967, “Silicon-Rhodamine Functionalized Evocalcet Probes Potently and Selectively Label Calcium Sensing Receptors In Vitro, In Vivo, and Ex Vivo” (ACS Pharmacology & Translational Science, 2024).

The subject of series [1] is CCL39 cells. The experiment in a line: Calcein AM viability assay, CCL39 cells, 72 h. It counts as cell-based, hamster. Here is the method:
The effects of EvoSiR probes and evocalcet on the viability of CCL39 and HCAR cells were evaluated using the Calcein AM assay as described by the manufacturer’s protocol (AAT Bioquest, 22002) with a working concentration of 10 μM. For the assay, cells were incubated in various concentrations of the compounds for 72 h. For positive controls, cells were incubated in culture media containing maximum 10% DMSO in a two-step dilution series for 72 h. Upon incubation in the Calcein AM solution for 1 h at 37 °C, the fluorescence readouts were retrieved using the Tecan GENios pro microplate reader (λex = 485 nm, λem = 535 nm, gain = 25 AU)

Series [2] deals with T1, human CaSR (Homo sapiens, UniProt P41180).
T1 construct: host or cells: CCL39 hamster lung fibroblasts stably transfected (HCAR), Geneticin selection
T1 sequence (P41180 20-1078): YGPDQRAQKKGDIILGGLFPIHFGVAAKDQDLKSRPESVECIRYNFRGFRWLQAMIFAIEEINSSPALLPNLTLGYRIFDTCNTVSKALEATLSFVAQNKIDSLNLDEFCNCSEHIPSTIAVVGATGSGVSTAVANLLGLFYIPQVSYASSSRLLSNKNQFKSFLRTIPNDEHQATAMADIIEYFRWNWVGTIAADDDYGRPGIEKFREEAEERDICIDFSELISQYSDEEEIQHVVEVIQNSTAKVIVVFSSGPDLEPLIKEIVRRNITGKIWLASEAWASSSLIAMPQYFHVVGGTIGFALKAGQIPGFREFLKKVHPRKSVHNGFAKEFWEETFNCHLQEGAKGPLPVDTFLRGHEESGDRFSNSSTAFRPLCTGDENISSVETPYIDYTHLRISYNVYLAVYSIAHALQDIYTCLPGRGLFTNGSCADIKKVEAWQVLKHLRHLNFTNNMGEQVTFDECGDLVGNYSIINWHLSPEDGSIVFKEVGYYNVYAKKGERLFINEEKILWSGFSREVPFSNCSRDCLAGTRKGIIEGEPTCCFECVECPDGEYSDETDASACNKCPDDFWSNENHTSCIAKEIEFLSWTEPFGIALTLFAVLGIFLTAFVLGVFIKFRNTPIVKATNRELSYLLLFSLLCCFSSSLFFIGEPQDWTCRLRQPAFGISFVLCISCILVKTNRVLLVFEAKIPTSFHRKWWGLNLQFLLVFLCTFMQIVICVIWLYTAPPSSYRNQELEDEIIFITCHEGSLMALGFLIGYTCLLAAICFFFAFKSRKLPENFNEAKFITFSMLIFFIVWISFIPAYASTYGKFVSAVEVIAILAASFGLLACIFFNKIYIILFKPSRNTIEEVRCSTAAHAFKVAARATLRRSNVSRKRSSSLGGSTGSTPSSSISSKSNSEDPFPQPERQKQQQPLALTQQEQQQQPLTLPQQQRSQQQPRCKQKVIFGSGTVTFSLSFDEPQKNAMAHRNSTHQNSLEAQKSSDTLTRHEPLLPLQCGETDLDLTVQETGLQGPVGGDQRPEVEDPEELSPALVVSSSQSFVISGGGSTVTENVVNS
The experiment in a line: FLIPR-based functional CaSR calcium assay in HCAR cells. As to conditions: for fold improvement in potency toward CaSR compared to evocalcet / fold increase in potency toward CaSR compared to the evocalcet-linker conjugate: FLIPR assay. It counts as cell-based. Here is the method: Hamster lung fibroblasts (CCL39, CaSR−) expressing the recombinant human CaSR (HCAR, CaSR+) and nontransected controls were kindly provided by Novartis AG and were kept in standard culturing conditions (37 °C, 5% CO2) in 1/2 DMEM (Roth, 9005.1)—1/2 F-12 (Sigma, N4888–500 mL) media containing 10% FBS. Media for the HCAR cells contained 500 μg/mL Geneticin as a selection antibiotic (Thermo Fisher, 10131035). Upon reaching 90–95% confluence, cells were detached and seeded into 96-well plates (PerkinElmer, 6005182) at a concentration of 35,000 cells per well and were incubated for 24 h before the experiment. For the functional CaSR calcium assay, cells were first washed twice with HBSS medium (Sigma, H6648), and were incubated in HBSS containing 5 μM Fluo-8 AM and 0.1 mM CaCl2 for 30 min at 37 °C. Calcium transients were measured upon addition of 0.5 mM CaCl2 with the FLIPR Tetra high-throughput cellular screening systems using the 470–495 nm LED excitation and 515–575 nm bandpass emission filters. Probe solutions contained 0.5% DMSO and were added to the cells 10 min prior to the measurement. dF/F0 values were calculated as a change in the peak fluorescence value of the transient for the first 200 data points normalized to the background fluorescence of the well. […] Both cells were washed with HBSS medium twice and then incubated for 10 min at 37 °C in HBSS medium containing 0.1% BSA in the presence or absence of 10 μM evocalcet. Upon the removal of media, cells were incubated in various concentrations of EvoSiR4 and EvoSiR6 in HBSS containing 0.1% BSA for 30 min at 37 °C and were subsequently washed 3 times with 0.1% BSA and resuspended in DMSO before the fluorometric measurement. The fluorescence was measured using a Tecan GENios pro microplate reader with the following parameters: λex = 612 nm, λem = 670 nm, gain = 50 AU. Data for the EvoSiR probes and the evocalcet competition is reported as CaSR-specific fluorescence, which was calculated by dividing the absolute fluorescence of the HCAR cells with the absolute fluorescence of the CCL39 cells for each concentration.

The mark [3] stands for this setting: EC50, positive allosteric modulation of CaSR activity, HCAR cells, response to addition of 0.5 mM CaCl2, no BSA.

Several values for one entry are separate records, joined by “and”; a condition that tells them apart may be missing. Equal entries are not always repeated. Where two headings read alike, the source gives them in different places. Bounds are passed on as bounds.

With `Cc1cc(C(=O)NCCCCNC(=O)Cc2ccc(N3CC[C@H](N[C@H](C)c4cccc5ccccc45)C3)cc2)ccc1C1=C2C=CC(=[N+](C)C)C=C2[Si](C)(C)c2cc(N(C)C)ccc21` [EvoSiR4], the concentration for half-maximal inhibition (IC50) in series [1] was 36000 ± 3800 nM. Further, the “effect on viability at 50 μM” value in series [1] is “significantly reduced”. Moreover, the EC50 in series [2] (setting [3]) is < 45 nM and ~40 nM and 38 nM; in series [2] (EC50 in 0.1% BSA, 0.1% BSA), 64 ± 12 nM; in series [2] (EC50 in 0.5% BSA, 0.5% BSA), 102 ± 34 nM; in series [2] (EC50 in 1% BSA, 1% BSA), 106 ± 42 nM. In addition, in series [2], the “fold improvement in potency toward CaSR compared to evocalcet” value is given as 6 fold. Moreover, in series [2], the “fold increase in potency toward CaSR compared to the evocalcet-linker conjugate” value is listed as 3 fold. In series [2] (incubated in 1% BSA, washed with HBSS upon 10 min incubation), the “fold reduction in the EC50 value upon washing with HBSS” value is listed as 10 fold.
With `Cc1cc(C(=O)NCCCCCCNC(=O)Cc2ccc(N3CC[C@H](N[C@H](C)c4cccc5ccccc45)C3)cc2)ccc1C1=C2C=CC(=[N+](C)C)C=C2[Si](C)(C)c2cc(N(C)C)ccc21` [EvoSiR6], in series [1], the IC50 is 36000 ± 6000 nM and the “effect on viability at 50 μM” value was “significantly reduced”. In series [2] (setting [3]), the EC50 is < 45 nM and ~40 nM and 42 nM. In series [2], the “fold improvement in potency toward CaSR compared to evocalcet” value was 6 fold and the “fold increase in potency toward CaSR compared to the evocalcet-linker conjugate” value is 3 fold.
As to `C[C@@H](N[C@H]1CCN(c2ccc(CC(=O)O)cc2)C1)c1cccc2ccccc12` [evocalcet], in series [1], the “concentration below which no effect on viability” value is less than 50 µM. In addition, the half-maximal effective concentration (EC50) in series [2] (HCAR cells, response to addition of 0.5 mM CaCl2, no BSA, read-out: EC50, positive allosteric modulation of CaSR activity) came to 243 ± 15 nM.

As a reminder, the IC50 is the point on the concentration scale where inhibition reaches its midpoint. Broadly, the EC50 is the concentration needed to bring the measured effect to its halfway point.
